Drawing on ChEMBL document CHEMBL2057107, “Synthesis and evaluation of aplysinopsin analogs as inhibitors of human monoamine oxidase A and B” (Bioorg Med Chem Lett, 2012), this text covers IC50 and Ratio IC50 for 48 compounds.

Broadly, the IC50 is the concentration at which inhibition is half-maximal.

Experiment [1] has as its target T1, Amine oxidase [flavin-containing] A (Homo sapiens, UniProt P21397).
T1 sequence (P21397 whole entry): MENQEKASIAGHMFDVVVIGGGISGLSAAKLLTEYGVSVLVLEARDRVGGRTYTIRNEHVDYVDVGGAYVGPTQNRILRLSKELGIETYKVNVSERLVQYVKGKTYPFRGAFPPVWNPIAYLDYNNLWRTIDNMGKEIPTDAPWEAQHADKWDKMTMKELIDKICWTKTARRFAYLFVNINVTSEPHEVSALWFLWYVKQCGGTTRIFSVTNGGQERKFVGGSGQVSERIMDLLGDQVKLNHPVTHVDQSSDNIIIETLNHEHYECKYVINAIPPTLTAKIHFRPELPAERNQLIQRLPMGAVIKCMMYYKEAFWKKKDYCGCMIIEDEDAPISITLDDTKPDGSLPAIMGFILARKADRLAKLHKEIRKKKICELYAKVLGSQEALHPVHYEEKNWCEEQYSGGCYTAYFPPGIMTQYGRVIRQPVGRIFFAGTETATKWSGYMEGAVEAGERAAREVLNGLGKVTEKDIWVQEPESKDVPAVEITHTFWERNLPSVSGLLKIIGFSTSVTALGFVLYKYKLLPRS
Nature of the experiment: Inhibition of human recombinant MAO-A using kynuramine as substrate preincubated with compound for 15 mins measured after 20 mins by fluorometric analysis.

Experiment [2] has as its target T2, Amine oxidase [flavin-containing] B (Homo sapiens, UniProt P27338).
T2 sequence (P27338 whole entry): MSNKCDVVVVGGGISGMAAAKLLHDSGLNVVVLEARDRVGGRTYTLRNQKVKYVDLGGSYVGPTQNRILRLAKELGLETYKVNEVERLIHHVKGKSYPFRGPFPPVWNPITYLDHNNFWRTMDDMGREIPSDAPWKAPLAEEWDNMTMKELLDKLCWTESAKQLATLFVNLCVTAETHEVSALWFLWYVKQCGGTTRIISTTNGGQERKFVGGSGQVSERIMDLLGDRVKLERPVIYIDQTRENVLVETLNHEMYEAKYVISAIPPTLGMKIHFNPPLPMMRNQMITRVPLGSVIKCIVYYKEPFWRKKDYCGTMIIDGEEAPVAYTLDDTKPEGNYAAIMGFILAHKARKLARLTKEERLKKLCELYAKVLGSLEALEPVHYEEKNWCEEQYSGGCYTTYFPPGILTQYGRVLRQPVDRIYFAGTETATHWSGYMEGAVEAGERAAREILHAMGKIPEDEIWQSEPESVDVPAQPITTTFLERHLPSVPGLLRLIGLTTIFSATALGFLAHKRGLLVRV
Nature of the experiment: Inhibition of human recombinant MAO-B using kynuramine as substrate preincubated with compound for 15 mins measured after 20 mins by fluorometric analysis.

For experiment [3], the species on record is Homo sapiens. The experiment is described as follows: Selectivity ratio of IC50 for human recombinant MAO-B to IC50 for human recombinant MAO-A.

Some results are limits rather than exact numbers.

Turning to `C/N=C1\NC(=O)/C(=C\c2c[nH]c3cc(Br)ccc23)N1C`, the IC50 stood at 0.029 µM in experiment [1] and 2.67 µM in experiment [2]. In experiment [3], the Ratio IC50 stood at 92.
Turning to `CSC1=NC(=O)/C(=C/c2c[nH]c3c(Br)cccc23)N1`, the IC50 was determined as 0.627 µM in experiment [1] and 2.43 µM in experiment [2]. For the same compound, the Ratio IC50 in experiment [3] stood at 3.88.
For `N=C1NC(=O)/C(=C/c2c[nH]c3ccccc23)N1`, in that order: 12.8 µM, 33 µM and 2.59.
Taken in the same sequence, the figures for `CN1C(=N)N(C)/C(=C/c2c[nH]c3ccc(Br)cc23)C1=O` were 0.236 µM, 2.7 µM and 11.4.
Take `CSC1=NC(=O)/C(=C/c2c[nH]c3ccc(Br)cc23)N1`: the half-maximal inhibitory concentration (IC50) is 7.13 µM in experiment [1] and 8.75 µM in experiment [2]. Moreover, the Ratio IC50 in experiment [3] turned out to be 1.22.
Take `O=C1NC(=S)N/C1=C\c1c[nH]c2c(Br)cccc12`: the IC50 was determined as 0.543 µM in experiment [1] and 1.24 µM in experiment [2]. In experiment [3], the Ratio IC50 amounted to 2.27.
Taken in the same sequence, the figures for `O=C1NC(=S)N/C1=C\c1c[nH]c2cccc(Br)c12` were 0.267 µM, 0.45 µM and 1.68.
Taken in the same sequence, the figures for `C/N=C1\N(C)C(=O)/C(=C\c2c[nH]c3cccc(Br)c23)N1C` were 0.623 µM, 5.22 µM and 8.37.
For `CSC1=NC(=O)/C(=C/c2c[nH]c3cc(Br)ccc23)N1`, in that order: 0.533 µM, 1.42 µM and 2.65.
Take `C/N=C1/N/C(=C\c2c[nH]c3ccc(Br)cc23)C(=O)N1C`: the IC50 was 3.25 µM in experiment [1] and 16.8 µM in experiment [2]. In experiment [3], the Ratio IC50 was 5.16.
As to `C/N=C1/N/C(=C\c2c[nH]c3ccccc23)C(=O)N1C`, the results for the IC50 in experiment [1] and in experiment [2] were 5.82 µM and 30.5 µM, respectively. Moreover, the Ratio IC50 in experiment [3] worked out at 5.24.
Consider `O=C1NC(=S)N/C1=C\c1c[nH]c2ccc(Br)cc12`, for which the IC50 in experiment [1] was 1.23 µM; in experiment [2] it was 2.57 µM. Further, the Ratio IC50 in experiment [3] worked out at 2.08.
Taken in the same sequence, the figures for `C/N=C1/N/C(=C\c2c[nH]c3cccc(Br)c23)C(=O)N1C` were 5.48 µM, 26.8 µM and 4.9.
Take `N=C1NC(=O)/C(=C/c2c[nH]c3ccc(Br)cc23)N1`: the IC50 in experiment [1] turned out to be 5.87 µM; in experiment [2], 11.3 µM. Also, the Ratio IC50 in experiment [3] stood at 1.93.
Turning to `CN1C(=N)N(C)/C(=C/c2c[nH]c3cc(Br)ccc23)C1=O`, the IC50 amounted to 0.0056 µM in experiment [1] and 0.447 µM in experiment [2].
Turning to `CN1C(=N)N/C(=C\c2c[nH]c3ccccc23)C1=O`, the IC50 in experiment [1] is 1.97 µM; in experiment [2], 34.3 µM. Moreover, the Ratio IC50 in experiment [3] was 17.5.
Taken in the same sequence, the figures for `CN1C(=N)N/C(=C\c2c[nH]c3ccc(Br)cc23)C1=O` were 0.327 µM, 4.3 µM and 13.2.
Taken in the same sequence, the figures for `N=C1NC(=O)/C(=C/c2c[nH]c3c(Br)cccc23)N1` were 5.52 µM, 27.8 µM and 5.04.
Taken in the same sequence, the figures for `C/N=C1\NC(=O)/C(=C\c2c[nH]c3cccc(Br)c23)N1C` were 2.58 µM, 26.3 µM and 10.2.
As for `C/N=C1\N(C)C(=O)/C(=C\c2c[nH]c3c(Br)cccc23)N1C`, the results for the IC50 in experiment [1] and in experiment [2] were 0.153 µM and 2.82 µM, respectively. Moreover, the Ratio IC50 in experiment [3] amounted to 18.4.
Taken in the same sequence, the figures for `C/N=C1/N/C(=C\c2c[nH]c3c(Br)cccc23)C(=O)N1C` were 1.08 µM, 4.26 µM and 3.94.
For `N=C1NC(=O)/C(=C/c2c[nH]c3cccc(Br)c23)N1`, the values for the IC50 in experiment [1] and in experiment [2] were 2.47 µM and 28.3 µM, respectively. Besides, the Ratio IC50 in experiment [3] is 11.5.
Taken in the same sequence, the figures for `CN1C(=N)N/C(=C\c2c[nH]c3cccc(Br)c23)C1=O` were 1.52 µM, 37 µM and 24.4.
As to `CN1C(=N)NC(=O)/C1=C\c1c[nH]c2cc(Br)ccc12`, the IC50 was 6.07 µM in experiment [1] and 35.7 µM in experiment [2]. For the same compound, in experiment [3], the Ratio IC50 came to 5.87.
Regarding `C/N=C1/N/C(=C\c2c[nH]c3cc(Br)ccc23)C(=O)N1C`, the IC50 in experiment [1] came out at 1.12 µM; in experiment [2] it was 25.7 µM. In experiment [3], the Ratio IC50 amounted to 22.9.
For `C/N=C1\NC(=O)/C(=C/c2c[nH]c3cc(Br)ccc23)N1`, in that order: 4.43 µM, 20.7 µM and 4.66.
For `CN1C(=N)NC(=O)/C1=C\c1c[nH]c2ccc(Br)cc12`, the IC50 in experiment [1] was determined as 8 µM; in experiment [2], 24.5 µM. In addition, the Ratio IC50 in experiment [3] turned out to be 3.06.
As to `CN1C(=N)NC(=O)/C1=C\c1c[nH]c2cccc(Br)c12`, the figures for the IC50 in experiment [1] and in experiment [2] were 26.2 µM and greater than 100 µM, respectively.
Consider `CN1C(=N)N(C)/C(=C/c2c[nH]c3c(Br)cccc23)C1=O`, for which the figures for the IC50 in experiment [1] and in experiment [2] were 0.052 µM and 3.12 µM, respectively. Further, in experiment [3], the Ratio IC50 amounted to 60.5.
Taken in the same sequence, the figures for `C/N=C1\NC(=O)/C(=C/c2c[nH]c3ccccc23)N1` were 13.3 µM, 6 µM and 0.45.
Turning to `O=C1NC(=S)N/C1=C\c1c[nH]c2ccccc12`, the IC50 in experiment [1] was determined as 14.3 µM; in experiment [2] it was 24.3 µM. In addition, in experiment [3], the Ratio IC50 was found to be 1.69.
Turning to `CSC1=N/C(=C\c2c[nH]c3ccccc23)C(=O)N1`, the half-inhibitory concentration (IC50) in experiment [1] was determined as 2.78 µM; in experiment [2] it was 59.3 µM. The Ratio IC50 in experiment [3] came to 21.3.
For `CN1C(=N)N(C)/C(=C/c2c[nH]c3ccccc23)C1=O` [APLYSINOPSIN], in that order: 0.035 µM, 10 µM and 290.
For `CN1C(=N)NC(=O)/C1=C\c1c[nH]c2c(Br)cccc12`, in that order: 6.11 µM, 34.3 µM and 5.62.
Turning to `C/N=C1\NC(=O)/C(=C/c2c[nH]c3ccc(Br)cc23)N1`, the IC50 in experiment [1] was found to be 1.2 µM; in experiment [2], 2 µM. Further, the Ratio IC50 in experiment [3] came to 1.66.
Taken in the same sequence, the figures for `CN1C(=N)N(C)/C(=C/c2c[nH]c3cccc(Br)c23)C1=O` were 2.07 µM, 51.2 µM and 24.8.
`CN1C(=N)N/C(=C\c2c[nH]c3c(Br)cccc23)C1=O`: the IC50 in experiment [1] came out at 1.2 µM; in experiment [2] it was 14.3 µM. Moreover, in experiment [3], the Ratio IC50 was 11.9.
For `C/N=C1\NC(=O)/C(=C\c2c[nH]c3ccc(Br)cc23)N1C`, in that order: 0.263 µM, 11.6 µM and 44.2.
Taken in the same sequence, the figures for `CN1C(=N)NC(=O)/C1=C\c1c[nH]c2ccccc12` were 12.2 µM, 43.2 µM and 3.55.
Taken in the same sequence, the figures for `O=C1NC(=S)N/C1=C\c1c[nH]c2cc(Br)ccc12` were 1.53 µM, 2.57 µM and 1.67.
With `CN1C(=N)N/C(=C\c2c[nH]c3cc(Br)ccc23)C1=O`, the figures for the IC50 in experiment [1] and in experiment [2] were 0.165 µM and 3.8 µM, respectively. The Ratio IC50 in experiment [3] was determined as 23.
For `N=C1NC(=O)/C(=C/c2c[nH]c3cc(Br)ccc23)N1`, in that order: 3.68 µM, 25.3 µM and 6.88.
Taken in the same sequence, the figures for `CSC1=NC(=O)/C(=C/c2c[nH]c3cccc(Br)c23)N1` were 0.677 µM, 3.73 µM and 5.51.
For `C/N=C1\N(C)C(=O)/C(=C\c2c[nH]c3ccc(Br)cc23)N1C`, the IC50 in experiment [1] was determined as 0.085 µM; in experiment [2] it was 0.37 µM. The Ratio IC50 in experiment [3] worked out at 4.38.
Taken in the same sequence, the figures for `C/N=C1\NC(=O)/C(=C\c2c[nH]c3c(Br)cccc23)N1C` were 1.9 µM, 12.8 µM and 6.75.
Taken in the same sequence, the figures for `C/N=C1\NC(=O)/C(=C/c2c[nH]c3c(Br)cccc23)N1` were 3.9 µM, 26 µM and 6.66.
Taken in the same sequence, the figures for `C/N=C1\N(C)C(=O)/C(=C\c2c[nH]c3ccccc23)N1C` [METHYLAPLYSINOPSIN] were 0.098 µM, 9.02 µM and 92.3.
For the compound `C/N=C1\NC(=O)/C(=C\c2c[nH]c3ccccc23)N1C` [ISOPLYSIN A], the IC50 in experiment [1] came to 3.08 µM; in experiment [2], 33.8 µM. In addition, the Ratio IC50 in experiment [3] is 11.
